This is an account of results in patent US20190046662A1, “Compositions and Methods for Treating Neuropathic Pain” (Rutgers, The State University of New Jersey, priority 2016, published 2019).

Holding throughout (assay type): in vivo, rat
Test [1] addresses T1, hM4Di receptors expressed in TG (Homo sapiens, UniProt P08173, A203G/Y113C).
T1 construct: expressed in transfected cells; host or cells: rat trigeminal ganglion neurons in vivo, transduced with AAV5 (synapsin promoter)
T1 sequence (P08173 1-479 Y113C/A203G): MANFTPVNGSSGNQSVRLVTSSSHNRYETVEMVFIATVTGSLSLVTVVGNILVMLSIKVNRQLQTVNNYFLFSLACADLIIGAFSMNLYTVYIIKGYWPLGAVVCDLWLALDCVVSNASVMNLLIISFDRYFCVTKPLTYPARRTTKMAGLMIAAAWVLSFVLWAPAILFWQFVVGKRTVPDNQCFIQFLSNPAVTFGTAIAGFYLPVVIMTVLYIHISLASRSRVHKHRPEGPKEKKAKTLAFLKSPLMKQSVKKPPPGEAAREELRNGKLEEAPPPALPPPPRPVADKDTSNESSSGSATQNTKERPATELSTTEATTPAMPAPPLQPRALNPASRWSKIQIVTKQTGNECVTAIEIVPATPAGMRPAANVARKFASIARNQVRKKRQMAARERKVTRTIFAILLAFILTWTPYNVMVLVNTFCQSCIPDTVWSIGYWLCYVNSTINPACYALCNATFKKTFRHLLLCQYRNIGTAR
Put plainly: Orofacial formalin test after AAV5-hSyn-hM4Di-mCherry injection into TG (Example 1). Conditions: rats with AAV5-hSyn-hM4Di-mCherry in TG, vs vehicle. An excerpt:
The orofacial formalin model is well established for inducing behavioral and molecular changes indicating pain. The formalin model mimics the clinical situation of an acute insult that wanes rapidly. Models of trigeminal pain and their behavioral and molecular assessments have been described (Benoliel et al. (2001) Pain 91:111-21; Benoliel et al. (2001) Neurosci. Lett., 297:151-4; Benoliel et al. (2002) Pain 97:203-12; Benoliel et al. (2002) Pain 99:567-78). There is increased and intense directed facial grooming following injection of formalin into the rat vibrissal pad, and the duration of grooming is thought to represent the level of pain (Clavelou et al. (1995) Pain 62:295-301; Raboisson et al. (1995) J. Neurophysiol., 73:496-505; Sukriti et al. (2004) Methods Find Exp. Clin. Pharmacol., 26:253-6). At day 37 after virus injection (to allow for viral transfection and DREADD expression), acute pain was induced by subcutaneous injection of 50 μL of 1.5% formalin into the rat's vibrissal pad. Formalin activates Aδ and C nociceptors as well as trigeminal and spinal nociceptive neurons. Formalin-induced unilateral pain is biphasic, with an early short-lasting (3-5 minutes) phase, followed after a quiescent period by a second, prolonged (20-40 minutes) tonic phase. The orofacial formalin test is a valid and reliable way of producing and quantifying nociception in the trigeminal region of the rat (Raboisson et al. (2004) Neurosci. Biobehay. Rev., 28:219-26; Le Bars et al. (2001) Pharmacol. Rev., 53:597-652; Vos et al. (1998) Pain 76:173-8). The concentration of formalin used allows for the detection of both hypo- and hyperalgesic effects. The time that the animal spends rubbing the injected area with fore- or hind paws was recorded. Thirty minutes prior to injecting formalin the animals received CNO ([…], ip) or vehicle treatment.

Test [2] has as its target T2, hSyn-hM4D (Homo sapiens, UniProt P08173, A203G/Y113C).
T2 construct: expressed in transfected cells; host or cells: rat trigeminal ganglion neurons in vivo, viral vector with synapsin promoter
T2 sequence (P08173 1-479 Y113C/A203G): T1 sequence (P08173 1-479 Y113C/A203G)
Put plainly: Pin-prick response score, synapsin-DREADD (hSyn-hM4D) in right trigeminal ganglion, non-CCI animals. The note with it: n=7 per group, CNO i.p. vs vehicle. The text has this:
The effects of synapsin-DREADD activation with CNO on pin-prick response score were also studied (FIG. 4). The pin-prick assay is generally considered a nociceptive threshold test. All animals (males, n=7 per group; females, n=7 per group) had synapsin-DREADD (hSyn-hM4D) injected into the right trigeminal ganglion. Average pin-prick response scores (±SEM) are plotted following intraperitoneal (i.p.) administration of CNO or vehicle.

Test [3] concerns the target T2, hSyn-hM4D. Put plainly: von Frey detection threshold, synapsin-DREADD (hSyn-hM4D) in right trigeminal ganglion, non-CCI animals. The note with it: n=7 per group, CNO i.p. vs vehicle. An excerpt: The effects of synapsin-DREADD activation with CNO on von Frey detection threshold were studied (FIG. 3). The von Frey assay uses von Frey fibers, which are small pieces of nylon rod of varying diameters, to test a rodent's sensitivity to a mechanical stimulus. The von Frey assay is generally considered a mechanical nociceptive threshold test. All animals (males, n=7 per group; females, n=7 per group) had synapsin-DREADD (hSyn-hM4D; synapsin promoter driven DREADD) injected into the right trigeminal ganglion. Average von Frey detection thresholds (±SEM) were plotted following intraperitoneal (i.p.) administration of CNO or vehicle.

The target of test [4] is T3, hTac1-hM4D (Homo sapiens, UniProt P08173, A203G/Y113C).
T3 construct: expressed in transfected cells; host or cells: rat trigeminal ganglion neurons in vivo, viral vector with Tac1 promoter
T3 sequence (P08173 1-479 Y113C/A203G): T1 sequence (P08173 1-479 Y113C/A203G)
Put plainly: Pin-prick response score, Tac1-DREADD (hTac1-hM4D) in trigeminal ganglion, non-CCI animals. The note with it: females, n=7 per group, CNO i.p. vs vehicle. An excerpt:
The effects of Tac1-DREADD activation with CNO on pin-prick response score were also studied (FIG. 8). All animals (female, n=7 per group) had Tachykinin 1-DREADD (hTac1-hM4D) injected into the trigeminal ganglion unilaterally. Average pin-prick response scores (±SEM) were plotted following intraperitoneal (i.p.) administration of CNO or vehicle.

Where [5] appears, read: CNO ip 30 min prior to formalin.

For `C[N+]1([O-])CCN(C2=Nc3cc(Cl)ccc3Nc3ccccc32)CC1` [CNO, clozapine N-oxide], in test [1] (CNO (10 mg/ml, ip) 30 min prior to 50 μL 1.5% formalin s.c. vibrissal pad, day 37 after virus, n=3/group, p<0.04), the “total time spent grooming after formalin” value is on record as “significantly reduced”. Also, the “grooming in early phase (<9 minutes) after formalin” value in test [1] (setting [5]) is “trends to reduce”. Also, in test [1] (setting [5]), the “grooming in late phase (9-45 minutes) after formalin” value was “trends to reduce”. For the same compound, the “pin-prick response score, contralateral side” value in test [2] (females, F=0.1, P=0.7) was “no significant effect”. For the same compound, in test [2] (females, F=0.1, P=0.8), the “pin-prick response score, ipsilateral side” value is “no significant effect”. Further, the “pin-prick response score, contralateral (left) vibrissal pad” value in test [2] (males, F=1.3, P=0.3) is on record as “No significant effect”. In addition, the “pin-prick response score, ipsilateral (right) vibrissal pad” value in test [2] (males, F=9.8, P=0.01) is listed as “significantly reduced”. Moreover, the “von Frey detection threshold, ipsilateral vibrissal pad” value is “no significant effect” in test [3] (females, D28, 30 min after CNO, F=1.2, P=0.3) and “no significant effect” in test [3] (males, F=3.3, P=0.1). Further, the “von Frey detection threshold, contralateral vibrissal pad” value in test [3] (females, F=2.8, P=0.1) is recorded as “no significant effect”; in test [3] (males, F=1.2, P=0.3) it was “no significant effect”. For the same compound, the “pin-prick response score, contralateral vibrissal pad” value in test [4] (F=0.01, P=0.9) is recorded as “no significant effect”. Also, the “pin-prick response score, ipsilateral vibrissal pad” value in test [4] (F=0.1, P=0.8) is “no significant effect”.
